pIC50: −log10 of the molar value.
What was measured:
[1] = test system: Mus musculus; assay: Compound was evaluated in vivo for the antitumor activity against murine sarcoma 180 cell lines at the specified dose 16 mg/kg; assay type: functional
[2] = test system: Mus musculus; assay: Compound was evaluated in vivo for the antitumor activity against murine sarcoma 180 cell lines at the specified dose 4.0 mg/kg; assay type: functional
[3] = test system: HeLa; assay: In vitro cytotoxicity against HeLaS3 cell lines.; assay type: functional, cell-based; conditions: Homo sapiens
[4] = test system: Mus musculus; assay: Compound was evaluated in vivo for the antitumor activity against murine sarcoma 180 cell lines at the specified dose 8.0 mg/kg; assay type: functional
[5] = test system: Mus musculus; assay: Compound was evaluated in vivo for the antitumor activity against murine sarcoma 180 cell lines at the specified dose 1 mg/kg; assay type: functional
[6] = test system: Mus musculus; assay: Compound was evaluated in vivo for the antitumor activity against murine sarcoma 180 cell lines at the specified dose 0.25 mg/kg; assay type: functional
[7] = test system: Mus musculus; assay: Compound was evaluated in vivo for the antitumor activity against murine sarcoma 180 cell lines at the specified dose 0.5 mg/kg; assay type: functional
[8] = test system: Mus musculus; assay: Compound was evaluated in vivo for the antitumor activity against murine sarcoma 180 cell lines at the specified dose 1.0 mg/kg; assay type: functional
[9] = test system: Mus musculus; assay: Compound was evaluated in vivo for the antitumor activity against murine sarcoma 180 cell lines at the specified dose 2.0 mg/kg; assay type: functional

Row | SMILES | T/C [1] | T/C [2] | pIC50 [3] | T/C [4] | T/C [5] | T/C [6] | T/C [7] | T/C [8] | T/C [9]
1 | COC(=O)[C@]1(C)Nc2c(OC(=O)N(C)C)cc3c(c2C1=O)[C@H](CBr)CN3C(=O)COc1ccc(OC)cc1 | 0.076 | 0.24 | 7.01 | 0.16 | – | – | – | – | –
2 | CNc1ccc(/C=C/C(=O)N2C[C@@H](CBr)c3c2cc(OC(=O)N(C)C)c2c3C(=O)[C@](C)(C(=O)OC)N2)cc1 | 0.055 | 0.18 | 6.14 | 0.1 | – | – | – | – | –
3 | COC(=O)[C@]1(C)Nc2c(OC(=O)N(C)C)cc3c(c2C1=O)[C@H](CBr)CN3C(=O)/C=C/c1ccc(OC)cc1 | 0.057 | 0.19 | 6.29 | 0.14 | – | – | – | – | –
4 | COC(=O)[C@@]1(C)C(=O)c2c3c(cc(O)c2N1C(=O)N(C)C)N(C(=O)c1cc2cc(OC)c(OC)c(OC)c2[nH]1)C[C@H]3CBr | – | – | 7.25 | – | 0.087 | 0.31 | 0.13 | – | –
5 | COC(=O)[C@]1(C)Nc2c(O)cc3c(c2C1=O)[C@H](CBr)CN3C(=O)c1cc2cc(OC)c(OC)c(OC)c2[nH]1 | – | – | 10.55 | – | – | 0.024 | – | – | –
6 | COC(=O)[C@]1(C)Nc2c(OC(=O)N(C)C)cc3c(c2C1=O)[C@H](CBr)CN3C(=O)c1cc2cc(OC)ccc2o1 | – | – | 6.40 | – | – | – | 0.26 | 0.13 | –
7 | COC(=O)Nc1ccc2[nH]c(C(=O)N3C[C@@H](CBr)c4c3cc(OC(=O)N(C)C)c3c4C(=O)[C@](C)(C(=O)OC)N3)cc2c1 | – | 0.13 | 6.23 | – | – | – | – | – | 0.31

Reference: ChEMBL document CHEMBL1129088, “Synthesis and antitumor activity of novel duocarmycin derivatives” (Bioorg Med Chem Lett, 1996)
